Assay [1] deals with Lck (h) (Homo sapiens, UniProt P06239). Briefly: Lck Human  Kinase Enzymatic Radiometric Assay. Format: biochemical. Particulars: for IC50: read-out: Lck IC50 nM Range*; for LcK IC50/HPK IC50 selectivity: ratio of Lck IC50 to HPK1 IC50. The procedure:
Lck (h) is incubated with 50 mM Tris pH 7.5, 0.1 mM EGTA, 0.1 mM Na3VO4, 250 uM KVEKIGEGTYGVVYK (Cdc2 peptide), 10 mM MgAcetate and [gamma-33P]-ATP (specific activity and concentration as required). The reaction is initiated by the addition of the Mg/ATP mix. After incubation for 40 minutes at RT, the reaction is stopped by the addition of phosphoric acid to a concentration of 0.5%. 10 uL of the reaction is then spotted onto a P30 filtermat and washed four times for 4 minutes in 0.425% phosphoric acid and once in methanol prior to drying and scintillation counting. For more details on the kinase assay procedures see: Gao, Y. et. al.; Biochem J., 451 (2): 313-328, 2013.

The target in assay [2] is T1, Recombinant (1-346) HPK1 (h) (Homo sapiens, UniProt Q92918).
T1 construct: Recombinant (1-346) HPK1 (h) is incubated with 8 mM MOPS pH 7.0
T1 sequence (Q92918 1-346): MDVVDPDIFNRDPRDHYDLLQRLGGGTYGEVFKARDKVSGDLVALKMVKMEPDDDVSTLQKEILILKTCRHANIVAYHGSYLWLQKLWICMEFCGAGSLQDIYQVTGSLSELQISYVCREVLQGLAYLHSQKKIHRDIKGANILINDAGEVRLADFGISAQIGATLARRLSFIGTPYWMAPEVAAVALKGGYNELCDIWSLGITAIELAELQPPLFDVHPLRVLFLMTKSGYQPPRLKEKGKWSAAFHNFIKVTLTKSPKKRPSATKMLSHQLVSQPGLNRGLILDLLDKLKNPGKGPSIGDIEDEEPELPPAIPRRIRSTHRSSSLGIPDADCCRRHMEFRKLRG
In words: HPK1 Human STE Kinase Enzymatic Radiometric Assay. Format: biochemical. The note with it: read-out: HPK1 IC50 nM Range*. The procedure:
A stock solution of 10 mM of test compound is prepared in DMSO. The compound plate was prepared by 3-fold and 9-point serial dilutions. […] The reaction is initiated by The addition of the Mg/ATP mix. After incubation for 40 minutes at RT, the reaction is stopped by the addition of phosphoric acid to a concentration of 0.5%.

Sequence of Lck (h) (P06239 whole entry): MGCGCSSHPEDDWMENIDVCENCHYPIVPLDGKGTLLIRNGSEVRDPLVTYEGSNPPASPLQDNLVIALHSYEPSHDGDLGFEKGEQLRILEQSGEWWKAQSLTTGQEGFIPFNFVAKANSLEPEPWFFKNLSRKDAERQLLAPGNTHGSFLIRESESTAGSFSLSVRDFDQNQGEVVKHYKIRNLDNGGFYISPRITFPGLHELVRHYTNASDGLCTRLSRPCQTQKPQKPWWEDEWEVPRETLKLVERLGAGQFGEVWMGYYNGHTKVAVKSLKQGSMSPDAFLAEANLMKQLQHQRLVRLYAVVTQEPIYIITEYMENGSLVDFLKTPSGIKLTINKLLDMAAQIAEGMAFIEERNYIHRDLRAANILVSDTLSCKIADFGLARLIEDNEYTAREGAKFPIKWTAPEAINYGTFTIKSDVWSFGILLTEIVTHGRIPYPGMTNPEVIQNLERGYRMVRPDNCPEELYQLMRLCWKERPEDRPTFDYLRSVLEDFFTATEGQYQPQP

Consider `Nc1nc(F)c(-c2ccc(OC3CCN(CC4CC4)CC3)cc2)cc1-c1cc2c(cc1F)C(=O)NCC2` [I-324, 6-(2-amino-5-(4-((1-(cyclopropylmethyl)piperidin-4-yl)oxy)phenyl)-6-fluoropyridin-3-yl)-7-fluoro-3,4-dihydroisoquinolin-1(2H)-one], for which the figures for the half-inhibitory concentration (IC50) in assay [1] and in assay [2] were above 1000 nM and 0.1 to 10 nM, respectively.

`Nc1nc(F)c(-c2ccc(N3CCN(CC4CC4)CC3)cc2)cc1-c1cc(F)c2c(=O)[nH]ccc2c1` [I-375, 6-(2-amino-5-(4-(4-(cyclopropylmethyl)piper-azin-1-yl)phenyl)-6-fluoropyridin-3-yl)-8-fluoroisoquinolin-1(2H)-one]: the IC50 is above 1000 nM in assay [1] and 0.1 to 10 nM in assay [2].

As for `Nc1nc(F)c(-c2ccc(N3CCS(=O)(=O)CC3)cc2)cc1-c1cc(F)c2c(c1)CCNC2=O` [I-359, 6-(2-amino-5-(4-(1,1-dioxidothiomorpholino)phenyl)-6-fluoropyridin-3-yl)-8-fluoro-3,4-dihydroisoquinolin-1(2H)-one], the IC50 is above 1000 nM in assay [1] and 0.1 to 10 nM in assay [2].

As for `CC(C)N1CCN(c2ccc(-c3cc(-c4ccc5c(c4)CCNC5=O)c(N)nc3Cl)cc2)CC1` [I-169, 6-(2-amino-6-chloro-5-(4-(4-isopropylpiperazin-1-yl)phenyl)pyridin-3-yl)-3,4-dihydroisoquinolin-1(2H)-one], the half-maximal inhibitory concentration (IC50) in assay [1] is above 1000 nM; in assay [2] it was 11 to 100 nM.

Turning to `CN(C)Cc1cc(-c2cc(-c3ccc4c(=O)[nH]cc(F)c4c3)c(N)nc2F)ccc1C1CCOCC1` [I-503, 6-(2-amino-5-(3-((dimethylamino)methyl)-4-(tetrahydro-2H-pyran-4-yl)phenyl)-6-fluoropyridin-3-yl)-4-fluoroisoquinolin-1(2H)-one], the IC50 in assay [1] is above 1000 nM; in assay [2] it was 0.1 to 10 nM.

As to `Nc1nc(F)c(-c2ccc(N3CCN(CCC(F)(F)F)CC3)cc2)cc1-c1cc2c(cc1F)C(=O)NCC2` [I-243, 6-(2-amino-6-fluoro-5-(4-(4-(3,3,3-trifluoropropyl)piperazin-1-yl)phenyl)pyridin-3-yl)-7-fluoro-3,4-dihydroisoquinolin-1(2H)-one], the IC50 in assay [1] is above 1000 nM; in assay [2] it was 0.1 to 10 nM.

As for `Nc1nc(F)c(-c2ccc(C3CCNCC3)cc2)cc1-c1cc2c(cc1F)C(=O)NCC2` [I-238, 6-(2-amino-6-fluoro-5-(4-(piperidin-4-yl)phenyl)pyridin-3-yl)-7-fluoro-3,4-dihydroisoquinolin-1(2H)-one 2,2,2-trifluoroacetate], the IC50 was above 1000 nM in assay [1] and 0.1 to 10 nM in assay [2].

For the compound `CN1C[C@@H]2C[C@]2(c2ccc(-c3cc(-c4cc5c(cc4F)C(=O)NCC5)c(N)nc3F)cc2)C1` [I-344, 6-(2-amino-6-fluoro-5-(4-((1S,5R)-3-methyl-3-azabicyclo[3.1.0]hexan-1-yl)phenyl)pyridin-3-yl)-7-fluoro-3,4-dihydroisoquinolin-1(2H)-one], the IC50 is above 1000 nM in assay [1] and 0.1 to 10 nM in assay [2].

Regarding `COCCN1CCCC(c2ccc(-c3cc(-c4ccc5c(c4)CCNC5=O)c(N)nc3F)cc2)C1` (stereo not shown) [I-122, 6-(2-amino-6-fluoro-5-(4-(1-(2-methoxyethyl)piperidin-3-yl)phenyl)pyridin-3-yl)-3,4-dihydroisoquinolin-1(2H)-one], the values for the concentration for half-maximal inhibition (IC50) in assay [1] and in assay [2] were above 1000 nM and 0.1 to 10 nM, respectively.

As for `Nc1nc(F)c(-c2ccc(OC3CCN(CCCC(F)(F)F)CC3)cc2)cc1-c1ccc2c(c1)CCNC2=O` [I-188, 6-(2-amino-6-fluoro-5-(4-((1-(4,4,4-trifluorobutyl)piperidin-4-yl)oxy)phenyl)pyridin-3-yl)-3,4-dihydroisoquinolin-1(2H)-one], the results for the IC50 in assay [1] and in assay [2] were above 1000 nM and 0.1 to 10 nM, respectively.

Take `CC(C)CN(C)C1CCN(c2ccc(-c3cc(-c4ccc5c(c4)CCNC5=O)c(N)nc3F)cc2)C1` (stereo not shown) [I-162, 6-(2-amino-6-fluoro-5-(4-(3-(isobutyl(methyl)amino)pyrrolidin-1-yl)phenyl)pyridin-3-yl)-3,4-dihydroisoquinolin-1(2H)-one]: the IC50 is above 1000 nM in assay [1] and 0.1 to 10 nM in assay [2].

For `CO[C@H]1CCN(c2ccc(-c3cc(-c4ccc5c(c4)CCNC5=O)c(N)nc3F)cc2)C1` [I-115, (S)-6-(2-amino-6-fluoro-5-(4-(3-methoxypyrrolidin-1-yl)phenyl)pyridin-3-yl)-3,4-dihydroisoquinolin-1(2H)-one], the IC50 in assay [1] is above 1000 nM; in assay [2], 0.1 to 10 nM.

Turning to `CC(C)N1CCc2cc(-c3cc(-c4ccc5c(c4)CCNC5=O)c(N)nc3F)nn2CC1=O` [I-228, 2-(6-amino-2-fluoro-5-(1-oxo-1,2,3,4-tetrahydroisoquinolin-6-yl)pyridin-3-yl)-6-isopropyl-5,6-dihydro-4H-pyrazolo[1,5-d][1,4]diazepin-7(8H)-one], the half-maximal inhibitory concentration (IC50) is above 1000 nM in assay [1] and 11 to 100 nM in assay [2].

As for `CC(C)[C@@H]1CN(c2ccc(-c3cc(-c4ccc5c(c4)CCNC5=O)c(N)nc3F)cc2)CCN1C` [I-48, (R)-6-(2-amino-6-fluoro-5-(4-(3-isopropyl-4-methylpiperazin-1-yl)phenyl)pyridin-3-yl)-3,4-dihydroisoquinolin-1(2H)-one], the IC50 in assay [1] is above 1000 nM; in assay [2], 0.1 to 10 nM.

Turning to `Nc1nc(F)c(-c2ccc(N3CCN(CC(F)F)CC3)cc2)cc1-c1cc2c(cc1F)C(=O)NCC2` [I-236, 6-(2-amino-5-(4-(4-(2,2-difluoroethyl)piperazin-1-yl)phenyl)-6-fluoropyridin-3-yl)-7-fluoro-3,4-dihydroisoquinolin-1(2H)-one], the half-maximal inhibitory concentration (IC50) in assay [1] was above 1000 nM; in assay [2], 0.1 to 10 nM.

For `COCCN1CCC(Oc2ccc(-c3cc(-c4ccc5c(c4)CCNC5=O)c(N)nc3F)cc2C(F)(F)F)CC1` [I-262, 6-(2-amino-6-fluoro-5-(4-((1-(2-methoxyethyl)piperidin-4-yl)oxy)-3-(trifluoromethyl)phenyl)pyridin-3-yl)-3,4-dihydroisoquinolin-1(2H)-one], the IC50 was above 1000 nM in assay [1] and 0.1 to 10 nM in assay [2].

With `CC(=O)N1CCN(c2ccc(-c3cc(-c4cc5c(cc4F)C(=O)NCC5)c(N)nc3F)cn2)CC1` [I-221, 6-(6′-(4-acetylpiperazin-1-yl)-6-amino-2-fluoro-[3,3′-bipyridin]-5-yl)-7-fluoro-3,4-dihydroisoquinolin-1(2H)-one 2,2,2-trifluoroacetate], the 50% inhibitory concentration (IC50) is above 1000 nM in assay [1] and 11 to 100 nM in assay [2].

Regarding `CC(C)[C@H]1CN(c2ccc(-c3cc(-c4ccc5c(c4)CCNC5=O)c(N)nc3F)c(F)c2)CCN1C` [I-51, (S)-6-(2-amino-6-fluoro-5-(2-fluoro-4-(3-isopropyl-4-methylpiperazin-1-yl)phenyl)pyridin-3-yl)-3,4-dihydroisoquinolin-1(2H)-one], the IC50 in assay [1] was above 1000 nM; in assay [2], 0.1 to 10 nM.

For `C[C@H]1CN(c2ccc(-c3cc(-c4ccc5c(c4)CCNC5=O)c(N)nc3F)cc2)C[C@H](C)N1C` [I-97, 6-(2-amino-6-fluoro-5-(4-((3S,5S)-3,4,5-trimethylpiperazin-1-yl)phenyl)pyridin-3-yl)-3,4-dihydroisoquinolin-1(2H)-one], the IC50 in assay [1] is above 1000 nM; in assay [2] it was 0.1 to 10 nM.

For `CC(C)N1CCc2cc(-c3cc(-c4cc5c(cc4F)C(=O)NCC5)c(N)nc3F)ccc2C1` [I-299, 6-(2-amino-6-fluoro-5-(2-isopropyl-1,2,3,4-tetrahydroisoquinolin-6-yl)pyridin-3-yl)-7-fluoro-3,4-dihydroisoquinolin-1(2H)-one], the IC50 in assay [1] is above 1000 nM; in assay [2], 0.1 to 10 nM.

Regarding `COc1cc(-c2cc(-c3ccc4c(c3)CCNC4=O)c(N)nc2F)ccc1OC1CCN(C(C)=O)CC1` [I-305, 6-(5-(4-((1-acetylpiperidin-4-yl)oxy)-3-methoxyphenyl)-2-amino-6-fluoropyridin-3-yl)-3,4-dihydroisoquinolin-1(2H)-one], the values for the 50% inhibitory concentration (IC50) in assay [1] and in assay [2] were above 1000 nM and 0.1 to 10 nM, respectively.

Take `Nc1nc(F)c(-c2ccc(N3CCOCC3)cc2)cc1-c1ccc2c(c1)CCNC2=O` [I-16, 6-(2-amino-6-fluoro-5-(4-morpholinophenyl)pyridin-3-yl)-3,4-dihydroisoquinolin-1(2H)-one]: in assay [1], the IC50 was above 1000 nM.

Turning to `Nc1nc(F)c(-c2ccc(N3C[C@@H]4CCO[C@@H]4C3)cc2)cc1-c1ccc2c(c1)CCNC2=O` [drawing 2683], the “LcK IC50/HPK IC50 selectivity” value in assay [1] came to 1429.

`Nc1nc(F)c(-c2ccc(N3C[C@H]4COC[C@H]4C3)cc2)cc1-c1ccc2c(c1)CCNC2=O`: the “LcK IC50/HPK IC50 selectivity” value in assay [1] was found to be 323.

For the compound `Nc1nc(F)c(-c2ccc(C3CCNCC3)cc2)cc1-c1ccc2c(c1)CCNC2=O` [drawing 2673], the “LcK IC50/HPK IC50 selectivity” value in assay [1] was determined as 1603.

As usually defined, the IC50 is the concentration at which inhibition is half-maximal.

The record behind these values is patent publication US20240343704A1, “HALO-SUBSTITUTED AMINO PYRIDINE COMPOUNDS AS INHIBITORS OF THE HAEMATOPOIETIC PROGENITOR KINASE 1 (HPK1)” (priority 2021, published 2024).
